# Source: publication PMC11213733, “Computational approaches identify a transcriptomic fingerprint of drug-induced structural cardiotoxicity” (Cell Biology and Toxicology, 2024)
# Counter-ions that a name gives are not always drawn. Like-named read-outs stand apart in the source and are kept apart here.
# Key:
# cardiac microtissues [1] = experiment: Transcriptomic profiling (mRNA-seq) and DESeq2 differential gene expression analysis in cardiac microtissues; details: absolute log2(Fold-Change) > 1, FDR p ≤ 0.05
# cardiac microtissues [2] = experiment: Ingenuity Pathway Analysis over-representation of differentially expressed genes (activation Z-score); format: cell-based, human; details: 48hr high; Group 2
# [3] = ref FDA label, cited from earlier work
# cardiac microtissues [4] = experiment: ATP depletion (CellTiter Glo Luminescent Cell Viability Assay) in cardiac microtissues; format: cell-based, human; details: the concentration is the IC30 of ATP depletion, or cell death caused
# Protocol: Cellular ATP concentrations were also assessed using the CellTiter Glo® Luminescent Cell Viability Assay as per the manufacturer’s instructions (Promega).
# cardiac microtissues [5] = experiment: Targeted qRT-PCR of ATAD3C, CDH13, IL6, PTX3, SLC7A5, UCHL1 in cardiac microtissues; format: cell-based, human; details: Sorafenib 3.74 µM, Sunitinib 3.53 µM, Dasatinib 10.8 µM; for activity at 3.74 µM: Homo sapiens, read-out: % of control
# Protocol: The experiment was performed with three technical replicates across 1-2 independent replicates.
# hiPS-CMs = system: hiPS-CMs; set-up: method as in Harmer et al., 2012; details: 10 µM; ref Harmer et al., 2012; cited from earlier work
smiles,measurement,setting,value
CNC(=O)c1cc(Oc2ccc(NC(=O)Nc3ccc(Cl)c(C(F)(F)F)c3)cc2)ccn1 [Sorafenib Tosylate],"number of significant differentially expressed genes, 6hr high","cardiac microtissues [1]; 6 hr, high concentration",13
same,"number of significant differentially expressed genes, 6hr low","cardiac microtissues [1]; 6 hr, low concentration",7
same,"number of significant differentially expressed genes, 48hr high","cardiac microtissues [1]; 48 hr, high concentration",268
same,"number of significant differentially expressed genes, 48hr low","cardiac microtissues [1]; 48 hr, low concentration",150
same,"number of significant differentially expressed genes, 72hr high","cardiac microtissues [1]; 72 hr, high concentration",204
same,"number of significant differentially expressed genes, 72hr low","cardiac microtissues [1]; 72 hr, low concentration",143
same,activation Z-score: Acute Phase Response Signaling,cardiac microtissues [2],-1.414
same,activation Z-score: Adrenomedullin signaling pathway,cardiac microtissues [2],0.447
same,activation Z-score: Aryl Hydrocarbon Receptor Signaling,cardiac microtissues [2],-1.342
same,activation Z-score: Breast Cancer Regulation by Stathmin1,cardiac microtissues [2],-2.111
same,activation Z-score: Cardiac Hypertrophy Signaling (Enhanced),cardiac microtissues [2],-1.387
same,activation Z-score: Cell Cycle: G2/M DNA Damage Checkpoint Regulation,cardiac microtissues [2],-2.236
same,activation Z-score: Colorectal Cancer Metastasis Signaling,cardiac microtissues [2],-1.633
same,activation Z-score: Cyclins and Cell Cycle Regulation,cardiac microtissues [2],1.342
same,activation Z-score: Endothelin-1 Signaling,cardiac microtissues [2],-2
same,activation Z-score: G-Protein Coupled Receptor Signaling,cardiac microtissues [2],-1.897
same,activation Z-score: HIF1Î± Signaling,cardiac microtissues [2],-0.447
same,activation Z-score: HMGB1 Signaling,cardiac microtissues [2],-1.897
same,activation Z-score: Hepatic Fibrosis Signaling Pathway,cardiac microtissues [2],-2.111
same,activation Z-score: IL-6 Signaling,cardiac microtissues [2],-1.667
same,activation Z-score: IL-8 Signaling,cardiac microtissues [2],-2
same,activation Z-score: ILK Signaling,cardiac microtissues [2],-1
same,activation Z-score: Immunogenic Cell Death Signaling Pathway,cardiac microtissues [2],-1
same,activation Z-score: Kinetochore Metaphase Signaling Pathway,cardiac microtissues [2],1.886
same,activation Z-score: LXR/RXR Activation,cardiac microtissues [2],2.333
same,activation Z-score: Leukocyte Extravasation Signaling,cardiac microtissues [2],-2
same,activation Z-score: MIF Regulation of Innate Immunity,cardiac microtissues [2],-2
same,activation Z-score: Macrophage Alternative Activation Signaling Pathway,cardiac microtissues [2],2.236
same,activation Z-score: Osteoarthritis Pathway,cardiac microtissues [2],-2.714
same,activation Z-score: Oxytocin Signaling Pathway,cardiac microtissues [2],-2.236
same,activation Z-score: PPAR Signaling,cardiac microtissues [2],2.236
same,activation Z-score: Pulmonary Fibrosis Idiopathic Signaling Pathway,cardiac microtissues [2],-1.897
same,activation Z-score: Pulmonary Healing Signaling Pathway,cardiac microtissues [2],-0.447
same,activation Z-score: Pyridoxal 5'-phosphate Salvage Pathway,cardiac microtissues [2],2.236
same,activation Z-score: Regulation Of The Epithelial Mesenchymal Transition By Growth Factors Pathway,cardiac microtissues [2],-1.89
same,activation Z-score: Ribonucleotide Reductase Signaling Pathway,cardiac microtissues [2],-0.816
same,activation Z-score: Role of IL-17F in Allergic Inflammatory Airway Diseases,cardiac microtissues [2],-2
same,activation Z-score: Role of JAK family kinases in IL-6-type Cytokine Signaling,cardiac microtissues [2],-1.414
same,activation Z-score: Salvage Pathways of Pyrimidine Ribonucleotides,cardiac microtissues [2],2.236
same,activation Z-score: Senescence Pathway,cardiac microtissues [2],-1.89
same,activation Z-score: Signaling by Rho Family GTPases,cardiac microtissues [2],-0.447
same,activation Z-score: TREM1 Signaling,cardiac microtissues [2],-2
same,activation Z-score: White Adipose Tissue Browning Pathway,cardiac microtissues [2],0
same,activation Z-score: Wound Healing Signaling Pathway,cardiac microtissues [2],-2.714
same,Structural cardiotoxin?,[3]; FDA label references heart failure or a decrease in left ventricular ejection fraction,Y
same,Functional cardiotoxin?,[3]; compound annotation,Y
same,Transcriptomic high concentration (µM) = IC30 of ATP depletion,cardiac microtissues [4],3.74 µM
same,activity at 3.74 µM,"cardiac microtissues [5]; gene ATAD3C, Run 1",85.7%
same,activity at 3.74 µM,"cardiac microtissues [5]; gene CDH13, Run 1",74%
same,activity at 3.74 µM,"cardiac microtissues [5]; gene CDH13, Run 2",113%
same,activity at 3.74 µM,"cardiac microtissues [5]; gene IL6, Run 1",35.3%
same,activity at 3.74 µM,"cardiac microtissues [5]; gene IL6, Run 2",6.7%
same,activity at 3.74 µM,"cardiac microtissues [5]; gene PTX3, Run 1",73.7%
same,activity at 3.74 µM,"cardiac microtissues [5]; gene PTX3, Run 2",74%
same,activity at 3.74 µM,"cardiac microtissues [5]; gene SLC7A5, Run 1",57%
same,activity at 3.74 µM,"cardiac microtissues [5]; gene SLC7A5, Run 2",50.2%
same,activity at 3.74 µM,"cardiac microtissues [5]; gene UCHL1, Run 1",66.2%
same,activity at 3.74 µM,"cardiac microtissues [5]; gene UCHL1, Run 2",70.9%
same,"2^-ΔΔCt of Individual reps, Treated 1","cardiac microtissues [5]; gene ATAD3C, Run 1",0.8342
same,"2^-ΔΔCt of Individual reps, Treated 2","cardiac microtissues [5]; gene ATAD3C, Run 1",0.8632
same,"2^-ΔΔCt of Individual reps, Treated 3","cardiac microtissues [5]; gene ATAD3C, Run 1",0.8757
same,"Average 2^-ΔΔCt, Treated","cardiac microtissues [5]; gene ATAD3C, Run 1",0.8577
same,"2^-ΔΔCt of Individual reps, Treated 1","cardiac microtissues [5]; gene CDH13, Run 1",0.6992
same,"2^-ΔΔCt of Individual reps, Treated 2","cardiac microtissues [5]; gene CDH13, Run 1",0.7927
same,"2^-ΔΔCt of Individual reps, Treated 3","cardiac microtissues [5]; gene CDH13, Run 1",0.7507
same,"Average 2^-ΔΔCt, Treated","cardiac microtissues [5]; gene CDH13, Run 1",0.7476
same,"2^-ΔΔCt of Individual reps, Treated 1","cardiac microtissues [5]; gene CDH13, Run 2",1.515
same,"2^-ΔΔCt of Individual reps, Treated 2","cardiac microtissues [5]; gene CDH13, Run 2",1.105
same,"2^-ΔΔCt of Individual reps, Treated 3","cardiac microtissues [5]; gene CDH13, Run 2",0.7867
same,"Average 2^-ΔΔCt, Treated","cardiac microtissues [5]; gene CDH13, Run 2",1.136
same,"2^-ΔΔCt of Individual reps, Treated 1","cardiac microtissues [5]; gene IL6, Run 1",0.3353
same,"2^-ΔΔCt of Individual reps, Treated 2","cardiac microtissues [5]; gene IL6, Run 1",0.4238
same,"2^-ΔΔCt of Individual reps, Treated 3","cardiac microtissues [5]; gene IL6, Run 1",0.3063
same,"Average 2^-ΔΔCt, Treated","cardiac microtissues [5]; gene IL6, Run 1",0.3551
same,"2^-ΔΔCt of Individual reps, Treated 1","cardiac microtissues [5]; gene IL6, Run 2",0.169
same,"2^-ΔΔCt of Individual reps, Treated 2","cardiac microtissues [5]; gene IL6, Run 2",0.0204
same,"2^-ΔΔCt of Individual reps, Treated 3","cardiac microtissues [5]; gene IL6, Run 2",0.0311
same,"Average 2^-ΔΔCt, Treated","cardiac microtissues [5]; gene IL6, Run 2",0.07349
same,"2^-ΔΔCt of Individual reps, Treated 1","cardiac microtissues [5]; gene PTX3, Run 1",0.6982
same,"2^-ΔΔCt of Individual reps, Treated 2","cardiac microtissues [5]; gene PTX3, Run 1",0.8787
same,"2^-ΔΔCt of Individual reps, Treated 3","cardiac microtissues [5]; gene PTX3, Run 1",0.6669
same,"Average 2^-ΔΔCt, Treated","cardiac microtissues [5]; gene PTX3, Run 1",0.7479
same,"2^-ΔΔCt of Individual reps, Treated 1","cardiac microtissues [5]; gene PTX3, Run 2",0.9568
same,"2^-ΔΔCt of Individual reps, Treated 2","cardiac microtissues [5]; gene PTX3, Run 2",0.4098
same,"2^-ΔΔCt of Individual reps, Treated 3","cardiac microtissues [5]; gene PTX3, Run 2",0.8963
same,"Average 2^-ΔΔCt, Treated","cardiac microtissues [5]; gene PTX3, Run 2",0.7543
same,"2^-ΔΔCt of Individual reps, Treated 1","cardiac microtissues [5]; gene SLC7A5, Run 1",0.5608
same,"2^-ΔΔCt of Individual reps, Treated 2","cardiac microtissues [5]; gene SLC7A5, Run 1",0.6339
same,"2^-ΔΔCt of Individual reps, Treated 3","cardiac microtissues [5]; gene SLC7A5, Run 1",0.5348
same,"Average 2^-ΔΔCt, Treated","cardiac microtissues [5]; gene SLC7A5, Run 1",0.5765
same,"2^-ΔΔCt of Individual reps, Treated 1","cardiac microtissues [5]; gene SLC7A5, Run 2",0.6489
same,"2^-ΔΔCt of Individual reps, Treated 2","cardiac microtissues [5]; gene SLC7A5, Run 2",0.4574
same,"2^-ΔΔCt of Individual reps, Treated 3","cardiac microtissues [5]; gene SLC7A5, Run 2",0.4262
same,"Average 2^-ΔΔCt, Treated","cardiac microtissues [5]; gene SLC7A5, Run 2",0.5108
same,"2^-ΔΔCt of Individual reps, Treated 1","cardiac microtissues [5]; gene UCHL1, Run 1",0.6452
same,"2^-ΔΔCt of Individual reps, Treated 2","cardiac microtissues [5]; gene UCHL1, Run 1",0.6787
same,"2^-ΔΔCt of Individual reps, Treated 3","cardiac microtissues [5]; gene UCHL1, Run 1",0.6738
same,"Average 2^-ΔΔCt, Treated","cardiac microtissues [5]; gene UCHL1, Run 1",0.6659
same,"2^-ΔΔCt of Individual reps, Treated 1","cardiac microtissues [5]; gene UCHL1, Run 2",0.8432
same,"2^-ΔΔCt of Individual reps, Treated 2","cardiac microtissues [5]; gene UCHL1, Run 2",0.6978
same,"2^-ΔΔCt of Individual reps, Treated 3","cardiac microtissues [5]; gene UCHL1, Run 2",0.5876
same,"Average 2^-ΔΔCt, Treated","cardiac microtissues [5]; gene UCHL1, Run 2",0.7095
COc1ccc(CCN(C)CCCC(C#N)(c2ccc(OC)c(OC)c2)C(C)C)cc1OC (stereo not shown) [verapamil],inhibition of calcium transient signal in cardiomyocytes,hiPS-CMs,inhibit almost all of the calcium transient signal
